The values below are quoted from earlier work in patent publication US20190027771A1, “ACID GAS REGENERABLE BATTERY” (Commonwealth Scientific and Industrial Research Organisation, priority 2015, published 2019).

Read-outs that look alike come from different tables or passages of the source.

For data set [1] the following is noted: for Cathode reaction potential E: reduction of the free metal ion to the metal; for Anode reaction potential E: reduction of the metal-ammine complex to the metal and NH3.

The pKa is the pH at which an ionisable group is half protonated. For `CC(O)CNCC(C)O` (stereo not drawn) [bis(2-hydroxypropyl)-amine, bis(2-hydroxypropyl)amine], the pKa (Table 2) was 9.1.
On to `NCCOCCO` [2-(2-Aminoethoxy)-ethanol, 2-(2-Aminoethoxy)ethanol], for which the pKa (Table 2) was 9.3.
As to `[Zn+2]` [Zn^2+], the “Cathode reaction potential E” value in data set [1] is given as “E = −0.763 V”.
Turning to `[Co+2]` [Co^2+], the “Cathode reaction potential E” value in data set [1] was “E = −0.277 V”.
As for `N.N.N.N.[Pd+2]` [[Pd(NH3)4]^2+], the “Anode reaction potential E” value in data set [1] is on record as “E = 0.0 V”.
For the compound 1,3 Diaminopropane, the pKa runs as follows: (Table 2) 10.4; (Table 3) 10.4.
`N.N.N.N.[Cu+2]` [[Cu(NH3)4]^2+]: the “Anode reaction potential E” value in data set [1] is recorded as “E = −0.04 V”.
In the case of `N.N.N.N.[Co+2]` [[Co(NH3)4]^2+], in data set [1], the “Anode reaction potential E” value is on record as “E = −0.422 V”.
Turning to `NCCCn1ccnc1` [1-(3-aminopropyl)-imidazole, 1-(3-aminopropyl)imidazole], the pKa (Table 2) is 9.6.
For `[Cu+2]` [Cu^2+], the “Cathode reaction potential E” value in data set [1] is reported as “E = +0.34 V”.
As for `CNCC(=O)O` [Sarcosine], the pKa (Table 2) is reported as 10.05.
With `NCc1cccc(CN)c1` [m-Xylylenediamine], the pKa (Table 2) is given as 9.2.
For the compound `[Hg+2]` [Hg^2+], in data set [1], the “Cathode reaction potential E” value was “E = +0.8535 V”.
In the case of `N.N.N.N.[Zn+2]` [[Zn(NH3)4]^2+], the “Anode reaction potential E” value in data set [1] is “E = −1.04 V”.
`NCCCCCO` [5-Amino-1-pentanol]: the pKa reads like this: (Table 2) 10.5; (Table 3) 10.5.
`[Pt+2]` [Pt^2+]: in data set [1], the “Cathode reaction potential E” value was “E = +1.188 V”.
On to `[Ni+2]` [Ni^2+], for which, in data set [1], the “Cathode reaction potential E” value is listed as “E = −0.257 V”.
`NCCCCCCN` [hexamethylenediamine]: the pKa (Table 2) is 10.9 and the pKa (Table 3) was 10.9.
On to `N[C@@H](CCC(=O)O)C(=O)O` [Glutamic acid], for which the pKa (Table 2) is on record as 9.47.
On to Pyrrolidine, for which, under “Table 2”, the pKa is given as 11.35.
In the case of `N.N.N.N.[Cd+2]` [[Cd(NH3)4]^2+], the “Anode reaction potential E” value in data set [1] is on record as “E = −0.622 V”.
Turning to `[Ag+]` [Ag^+], in data set [1], the “Cathode reaction potential E” value is reported as “E = +0.80 V”.
Take `N.N.N.N.N.N.[Ni+2]` [[Ni(NH3)6]^2+]: in data set [1], the “Anode reaction potential E” value is “E = −0.49 V”.
For the compound `[Cd+2]` [Cd^2+], the “Cathode reaction potential E” value in data set [1] is “E = −0.403 V”.
Regarding `C[C@H](N)C(=O)O` [L-Alanine], the pKa (Table 2) is listed as 9.69.
Consider `NCCS(=O)(=O)O` [Taurine], for which, for the setting “Table 2”, the pKa was […].
On to `N.N.N.N.[Hg+2]` [[Hg(NH3)4]^2+], for which the “Anode reaction potential E” value in data set [1] is given as “E = +0.283 V”.
Consider `N.N.[Ag+]` [[Ag(NH3)2]^+], for which the “Anode reaction potential E” value in data set [1] is listed as “E = +0.37 V”.
With `[Pd+2]` [Pd^2+], in data set [1], the “Cathode reaction potential E” value was “E = +0.915 V”.
Consider `CCCCCN` [Amylamine], for which the pKa (Table 2) is given as 10.81.
For the compound `N.N.N.N.N.N.[Pt+2]` [[Pt(NH3)6]^2+], the “Anode reaction potential E” value in data set [1] is recorded as “E = +0.144 V”.
As for `CC1CCNCC1` [4-methylpiperidine], under “Table 2”, the pKa is 11.27.
With `C[C@@H](O)[C@H](N)C(=O)O` [L-Threonine], under “Table 2”, the pKa is 9.1.
